Like-named read-outs stand apart in the source and are kept apart here.
Legend:
[1] = system: cellular ATP production in PF T. brucei; test: ATP monitoring in live PF cells (proline as sole carbon source, bioluminescence); assay type: cell-based, Trypanosoma brucei; conditions: 2 h, normalised to no inhibitor control
Procedure: We first set out to determine if B-THP-T compounds affected cellular ATP levels. PF T. brucei were incubated in buffered PBS with/without proline as the sole carbon source and various inhibitors for 2 h. Cells were harvested and their ATP content was determined by bioluminescence assay. Two ETC inhibitors were used as positive control: malonate is a competitive inhibitor of mitochondrial complex II and prevents the […] of succinate to fumarate and entry of electrons to the ETC; and antimycin A (AA) is a mitochondrial complex III inhibitor, which prevents the transfer of electrons to cytochrome c and ubiquinone recycling. […] Compound 1 inhibited ATP production in a dose-response manner to similar levels (by 55 ± 6%), supporting the hypothesis from pull-down data that its target is involved in the ATP production pathway from proline.
Fig 4 B-THP-Ts decrease cellular ATP levels. PF T. brucei cells were incubated in buffered PBS with/without proline (as sole carbon source) and various inhibitors (concentrations indicated) incubated for 2 h, after which cells were harvested and cellular ATP levels were monitored by bioluminescence assay. Key: NS, no substrate; NI, no inhibitor control; Malonate (complex II inhibitor) AA, antimycin A (AA, complex III inhibitor). Background relative light units (RLU) were subtracted from measurements and % ATP production normalised to the no inhibitor control. Data were averaged from two independent experiments, each performed in duplicate (n = 4). Error bars show standard deviations. […]
Effects of compounds on proline metabolism were determined using a methodology adapted from Podolec et al. Briefly, glucose-free-conditioned PF T. brucei cells were washed into buffered PBS and incubated in 200 μl volumes with inhibitors for 10 min. […] Supernatants containing metabolic end-products and citrate standard were analysed to evaluate effects on proline metabolism (see below), while the ATP content of cells was determined as follows. […] ATP content was determined as above.

[2] = system: ATP production (oxidative phosphorylation) in digitonin-permeabilised PF T. brucei; test: ATP production assay in digitonin-permeabilised cells; assay type: cell-based, Trypanosoma brucei; conditions: for Effect on ATP production from succinate: succinate 2.5 mM as substrate
Source text: We next sought to identify the point at which ATP production was blocked using digitonin-permeabilised cells. Digitonin permeabilises the plasma membrane of trypanosomatids, but crucially, leaves the glycosomes and mitochondria intact and fully functional, allowing them to be probed with compartment-specific ATP-yielding substrates. Digitonin-permeabilised PF T. brucei were probed with succinate, which is readily transported across the PF T. brucei mitochondrial membrane by the dicarboxylic acid carrier and can yield only oxidative phosphorylation-derived ATP through the FoF1-ATP synthase (complex V).
Fig 5 Inhibition of ATP production in digitonin-permeabilsed cells. (A-C) Digitonin-permeabilised PF T. brucei were probed with substrates in the presence of inhibitors and resulting ATP production quantified by bioluminescence assay. See experimental section for details. Inhibitors were used at saturating concentrations to ensure that relevant enzyme activities were ablated. Key: NS, no substrate; NI, no inhibitor; SHAM, salicylhydroxamic acid (TAO inhibitor at 100 μM); Rotenone (complex I inhibitor at 100 μM); Malonate (complex II inhibitor at 5 mM); AA, antimycin A (complex III inhibitor at 200 μM); OA, oligomycin A (complex V inhibitor at 200 μM); DNP, 2,4-dinitrophenol (protonophore at 1 mM); Comp.1, compound 1 at 200 μM. Background relative light units (RLU) were subtracted from measurements and % ATP production normalised to the no inhibitor control. Data were averaged from three independent experiments, each performed in quadruplicate. Error bars show standard deviations. T-tests were performed against no inhibitor controls (black asterisks) and compound 1 (grey open circles) and significance values presented: p < 0.00005 (*** / °°°), p < 0.0005 (** / °°), p < 0.005 (* / °). (A) Succinate was used as a substrate to generate ATP solely through oxidative phosphorylation (OxPhos). Oxidative phosphorylation inhibitors malonate, AA, OA and DNP virtually eliminated all ATP production. […] (B) α-ketoglutarate yields 40% ATP through substrate-level phosphorylation (SubPhos) and 60% through oxidative phosphorylation. Malonate, AA, OA and DNP inhibit oxidative phosphorylation, but not substrate-level phosphorylation. […] (C) Gly-3P acts as an alternative entry site to the electron transport chain yielding ATP through oxidative phosphorylation and the glycosome (GlyPhos). Malonate has no effect, as it acts at a different entry point. AA, OA and DNP inhibit oxidative phosphorylation, but not glycosomal phosphorylation.
ATP production assays were carried out in duplicate, and three independent assays were conducted. Cells were digitonin-permeabilised as previously described. Briefly, cells were washed in PBS and permeabilised for 5 min at a density of 1x10^8 cells/mL in SoTE buffer (20 mM Tris.HCl (pH 7.5), 2 mM EDTA pH 7.5, 600 mM sorbitol) supplemented with 0.015% (w/v) digitonin. Permeabilised cells were pelleted at 5000 g for 3 min at 4°C and suspended to 8.4x10^7 cells/mL in ATP assay buffer (20 mM Tris.HCl (pH 7.4), 15 mM KH2PO4, 0.6 M sorbitol, 10 mM MgSO4, 2.5 mg/mL fatty acid-free BSA.
ATP production assays were carried out in 75 μl volumes in 96-well plates with a final PF T. brucei cell density of 6.7 x 10^7 cells/mL as previously reported. […] B-THP-Ts, antimycin A (AA) and oligomycin A (OA) were used at 200 μM, Dinitrophenol (DNP) at 1 mM, malonate at 5 mM, rotenone at 100 μM and salicylhydroxamic acid (SHAM) at 100 μM. 59.25 μL digitonin-permeabilised cells (prepared above) were added to 0.75 μl inhibitor dissolved in DMSO (or 0.75 μL DMSO without inhibitor for no inhibitor control) and incubated for 10 min to allow inhibitors to take effect. Substrate was added to 2.5 mM and incubated for 10 min. Reactions were started with the addition of ADP to 60 μM and incubated at RT for 30 min. […]

[3] = 30 min, compound 1, AA, OA 200 μM, DNP 1 mM, malonate 5 mM, rotenone, SHAM 100 μM
[4] = glycerol-3-phosphate as substrate, 30 min, compound 1, AA, OA 200 μM, DNP 1 mM

Compound | Inhibition of cellular ATP production [1] [%] | Effect on ATP production from Gly-3P ([2]; glycerol-3-phosphate as substrate, 30 min, malonate 5 mM, rotenone, SHAM 100 μM) | Effect on ATP production from succinate [2, 3] | Inhibition of ATP production from Gly-3P [2, 4] [%] | IC50 ([2]; Trypanosoma brucei, 0.5 h, read-out: IC50 against oxidative phosphorylation (ATP production), Gly-3P as substrate, digitonin-permeabilised PF T. brucei, Gly-3P, 30 min incubation) [µM] | IC50 ([2]; Trypanosoma brucei, 0.5 h, read-out: IC50 against oxidative phosphorylation (ATP production), succinate as substrate, digitonin-permeabilised PF T. brucei, succinate, 30 min incubation) [µM] | IC50 ([2]; read-out: IC50 against oxidative phosphorylation (ATP production), Gly-3P as substrate, digitonin-permeabilised PF T. brucei, Gly-3P, 30 min incubation) [µM] | IC50 ([2]; read-out: IC50 against oxidative phosphorylation (ATP production), succinate as substrate, digitonin-permeabilised PF T. brucei, succinate, 30 min incubation) [µM] | Inhibition of ATP production from α-ketoglutarate ([2]; α-ketoglutarate as substrate, 30 min, compound 1, AA, OA 200 μM, DNP 1 mM, malonate 5 mM) [%]
O=C(O)CC(=O)O [malonate] | 62 ± 15 | no effect | completely eliminated all ATP production | – | – | – | – | – | –
CCCCCC[C@H]1C(=O)O[C@H](C)[C@H](NC(=O)c2cccc(NC=O)c2O)C(=O)O[C@@H](C)[C@@H]1OC(=O)CC(C)C [antimycin A] | 71 ± 9 | – | almost abolished ATP production | 75 ± 14 | – | – | – | – | –
CCCCCC[C@H]1CCC[C@@H](Cn2cc([C@@H]3CCC[C@H](CCCCO)O3)nn2)O1 [Compound 1] | 55 ± 6 | – | decreased ATP production from succinate to similar levels | 82 ± 16 | 39.2 ± 4.6 | 57.3 ± 14.5 | 39 ± 5 | 57 ± 15 | 67 ± 13

Source: publication PMC5608556, “Photo-affinity labelling and biochemical analyses identify the target of trypanocidal simplified natural product analogues” (PLoS Neglected Tropical Diseases, 2017)
